Active and inactive are the calls of the source. The calls are words filed in the database; no cut-off is given here.
Experiments:
[1] = Clearance in Balb/c mouse at 2 mg/kg,iv administration and measured upto 24 hrs by LC-MS/MS analysis; format: ADME, organism-based; details: in vivo
[2] = Volume of distribution at steady state in Balb/c mouse at 2 mg/kg,iv administration and measured upto 24 hrs by LC-MS/MS analysis; format: ADME, organism-based; details: in vivo, read-out: Vdss
[3] = AUC (0 to infinity) in Balb/c mouse at 2 mg/kg,iv administration and measured upto 24 hrs by LC-MS/MS analysis; format: ADME, organism-based; details: in vivo
[4] = Cmax in Balb/c mouse at 20 mg/kg,po administration and measured upto 24 hrs by LC-MS/MS analysis; format: ADME, organism-based; details: in vivo
[5] = Half life in Balb/c mouse at 20 mg/kg,po administration and measured upto 24 hrs by LC-MS/MS analysis; format: ADME, organism-based; details: in vivo
[6] = Cytotoxicity against mouse BV-2 cells incubated for 24 hrs by crystal violet staining based assay; format: toxicity, cell-based
[7] = molecular target: T1, Toll-like receptor 4 (Mus musculus, UniProt Q9QUK6); assay: Antagonist activity at TLR4 in mouse BV-2 cells assessed as inhibition of LPS-induced TNF-alpha production by ELISA; format: cell-based
T1 sequence (Q9QUK6 whole entry): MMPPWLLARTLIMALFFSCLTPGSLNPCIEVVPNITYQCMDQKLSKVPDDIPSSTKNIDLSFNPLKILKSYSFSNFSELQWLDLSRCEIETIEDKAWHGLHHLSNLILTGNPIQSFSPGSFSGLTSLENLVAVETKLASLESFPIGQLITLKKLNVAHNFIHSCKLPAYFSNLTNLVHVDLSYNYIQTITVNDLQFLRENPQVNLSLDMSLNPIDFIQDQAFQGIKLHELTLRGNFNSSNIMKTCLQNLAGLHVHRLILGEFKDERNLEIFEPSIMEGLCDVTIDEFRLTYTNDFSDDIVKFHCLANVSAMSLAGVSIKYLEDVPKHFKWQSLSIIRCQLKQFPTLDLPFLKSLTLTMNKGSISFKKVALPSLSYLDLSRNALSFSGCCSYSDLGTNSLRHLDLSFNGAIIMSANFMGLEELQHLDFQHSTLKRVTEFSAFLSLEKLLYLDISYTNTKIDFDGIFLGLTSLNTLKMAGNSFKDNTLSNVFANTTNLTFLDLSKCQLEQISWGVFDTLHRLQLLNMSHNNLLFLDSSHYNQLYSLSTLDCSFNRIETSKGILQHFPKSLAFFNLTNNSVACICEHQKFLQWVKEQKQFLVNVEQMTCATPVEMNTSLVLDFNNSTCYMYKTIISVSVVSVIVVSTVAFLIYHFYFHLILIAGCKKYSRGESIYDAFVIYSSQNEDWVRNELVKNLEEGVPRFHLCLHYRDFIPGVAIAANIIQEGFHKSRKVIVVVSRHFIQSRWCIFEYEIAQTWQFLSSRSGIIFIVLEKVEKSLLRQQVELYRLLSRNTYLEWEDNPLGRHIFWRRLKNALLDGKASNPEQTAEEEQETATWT

[8] = molecular target: T2, Toll-like receptor 4 (Mus musculus) (UniProt Q9QUK6); assay: Antagonist activity at TLR4 signaling pathway in mouse BV-2 cells assessed as downregulation of LPS-induced IKKalpha phosphorylation at 5 uM incubated for 1 hr by Western blot analysis; format: cell-based; details: filed as antagonist
T2 sequence (whole entry): T1 sequence (Q9QUK6 whole entry)

[9] = molecular target: T2, Toll-like receptor 4 (Mus musculus); assay: Antagonist activity at TLR4 signaling pathway in mouse BV-2 cells assessed as downregulation of LPS-induced ERK phosphorylation at 5 uM incubated for 1 hr by Western blot analysis; format: cell-based; details: filed as antagonist
[10] = molecular target: T2, Toll-like receptor 4 (Mus musculus); assay: Antagonist activity at TLR4 signaling pathway in mouse BV-2 cells assessed as downregulation of LPS-induced IRAK1 phosphorylation at 5 uM incubated for 1 hr by Western blot analysis; format: cell-based
[11] = test system: Mus musculus; assay: Inhibition of morphine-induced addiction behavior in Balb/c mouse assessed as decrease in locomotor activity at 0.005 to 0.2 mg/kg,ip administrated on day 4 to 10 by open-field test; format: functional, organism-based; details: dose 0.005-0.2 mg/kg, time 7.0 day
[12] = Toxicity in morphine-induced Balb/c mouse assessed body weight loss at 0.2 mg/kg,ip administrated for 1 week; format: organism-based; details: in vivo, 168 h, time 1 weeks
[13] = Toxicity in morphine-induced Balb/c mouse assessed body weight loss at 0.2 mg/kg,ip administrated for 1 week and measured on day 15; format: organism-based; details: in vivo, 360 h, time 15 day

Row | Structure (SMILES) | clearance [1] | Vd [2] | AUC(0-inf) [3] | Cmax [4] | half-life [5] | IC50 at 24 h [6] | IC50 [7] | Activity [8] | Activity [9] | Activity [10] | inhibition [11] | Activity [12] | Activity [13]
1 | CN1CC[C@@]23c4c5ccc(O)c4O[C@@H]2C(=O)C=C[C@]3(O)[C@@H]1C5 (single isomer, unassigned) | 469 mL/min/kg | 75.5 L/kg | 71.8 ng·h/mL | 51.5 ng/mL | 8.9 h | 13.7 µM | 2.3 µM | Active | Active | inactive | Dose-Dependent Effect | Non-Toxic | Non-Toxic
2 | COc1ccc2c3c1O[C@@H]1C(=O)C=C[C@]4(O)[C@H](C2)N(C)CC[C@@]314 (single isomer, unassigned) |  | 97 L/kg | 16.5 ng·h/mL | 25 ng/mL | 2.2 h | 23.6 µM | 4.2 µM | Active | Active | inactive | Dose-Dependent Effect | Non-Toxic | Non-Toxic

Reference: ChEMBL document CHEMBL5528044, “Exploring the Function of (+)-Naltrexone Precursors: Their Activity as TLR4 Antagonists and Potential in Treating Morphine Addiction” (J Med Chem, 2024)
